For experiment [1], the target named is T1, human MMP-9 (gelatinase B) (Homo sapiens, UniProt P14780).
T1 construct: endogenous in cells; host or cells: HT1080 human fibrosarcoma cells (ATCC CCL-121), PMA-stimulated; enzyme purified from the culture supernatant
In words: Inhibition activity against human MMP-9 (gelatinase B), fluorescent peptide substrate. It is filed as biochemical. The note with it: compounds of the formula (I). The method, boiled down:
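MMP-9 purified from PMA-stimulated (10 ng/ml) HT1080 supernatant, or commercial enzyme (0.0125-0.025 unit/ml or 0.2 μg/ml final), incubated with compound and 10 μM final Mca-Pro-Leu-Gly-Leu-Dpa-Ala-Arg-NH2 fluorescent substrate at 37 °C for 3 h in the dark. Precursor enzyme activated with APMA.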

Experiment [2] relates to CPAE cells (bovine pulmonary-derived vascular endothelical cells). In words: Inhibitory action against capillary-like tube formation of vascular endothelial cells, three dimensional collagen gel culture. The settings on record: for Number of networks Average ± SD: n = 5, Day 4. In kind it is cell-based. As for the experimental part: With reference to the method disclosed in a literature (Hayashi, J. N. et al, Virchows arch. (B), Vol. 60,245-252, 1991, Lee, D. Y. et al, Life Science, Vol. 60, 127-134, 1997), evaluation was carried out by the following method.
7 Parts by volume of type I-a collagen (manufactured by Nitta Gelatin K. K.) and 2 parts by volume of Dulbecco's Modified Eagle Medium (concentration: 5 times, containing no NaHCO3; No. D-5648, manufactured by Sigma Co.) were thoroughly mixed under cooling with ice, and then one part by volume of a collagen gel-reconstructing buffer solution (2.2% NaHCO3/0.2M HEPES/0.05N NaOH) was added thereto. To withdraw bubbles, centrifugal separation and supersonic treatment were carried out, and then 400 μl of the gel was introduced into 24 well multi-well plate (Code 3047, manufactured by Falcon Co.) and incubated at 37° C. for about 10 minutes for gelation.
On the gelled collagen, CPAE cells (bovine pulmonary-derived vascular endothelical cells; ATCC CCL209, purchased from Dainippon Seiyaku K. K.) was inoculated in a concentration of 4×10^4 cells/400 μl/well (Day 0). Thereafter the cells were cultured overnight at 37° C. in a 5% CO2 incubator. Next day (Day 1), after confirming that the cells were normally proliferating, the culture solution was removed by aspiration, and a fresh collagen gel (prepared in the same manner as the above layer) was overlaid in an amount of 200 μl/well and gelled.
On the gel, the test materials dissolved in 10% fetal bovine serum-containing Dulbecco's Modified Eagle Medium (No. D-5648, manufactured by Sigma Co.) (prepared to have a concentration four times the final concentration) was added in an amount of 200 μl, and culturing was continued under the same conditions. Upon expiration of three days from stratification (Day 4), capillary-like tube formation was observed by a microscope, and an optional field of view was photographed with 100 magnifications, whereupon the number of capillary-like structures formed (the number of networks) were visually counted with reference to the method disclosed in a literature by Yeong, H. et al (Cancer Research, Vol. 56, 2428-2433, 1996). For each test sample, 2 well treatment was carried out, and a total of five fields of view were photographed for evaluation.

[3] abbreviates: 1st measurement, read-out: MMP-9 inhibition activities IC50, 1st.
Setting [4] is: 2nd measurement, read-out: MMP-9 inhibition activities IC50, 2nd.
The mark [5] stands for this setting: average of 1st and 2nd (or single measurement), read-out: MMP-9 inhibition activities IC50, Average.

Like-named read-outs stand apart in the source and are kept apart here. Marks after values point to notes of the source that are not given here.

T1 sequence (P14780 107-707 limits assumed): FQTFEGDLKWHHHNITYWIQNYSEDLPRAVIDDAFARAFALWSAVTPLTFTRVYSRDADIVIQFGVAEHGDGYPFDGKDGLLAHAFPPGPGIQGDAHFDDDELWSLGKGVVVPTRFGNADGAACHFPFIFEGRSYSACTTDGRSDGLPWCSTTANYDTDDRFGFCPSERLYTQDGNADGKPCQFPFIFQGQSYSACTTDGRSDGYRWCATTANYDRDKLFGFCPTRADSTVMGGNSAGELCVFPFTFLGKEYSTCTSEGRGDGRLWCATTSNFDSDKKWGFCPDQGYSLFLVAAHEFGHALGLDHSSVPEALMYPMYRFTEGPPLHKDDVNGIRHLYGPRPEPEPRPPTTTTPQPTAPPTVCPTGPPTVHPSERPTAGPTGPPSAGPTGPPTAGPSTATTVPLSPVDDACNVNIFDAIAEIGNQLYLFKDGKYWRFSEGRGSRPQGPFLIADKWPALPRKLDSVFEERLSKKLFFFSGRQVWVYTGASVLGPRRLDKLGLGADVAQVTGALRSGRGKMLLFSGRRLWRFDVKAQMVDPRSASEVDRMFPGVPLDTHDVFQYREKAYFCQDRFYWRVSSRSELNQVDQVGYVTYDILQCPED

`CS(=O)(=O)NC(=C[N+](=O)[O-])NNc1cc(C(F)(F)F)cc(Cl)n1` [Compound No. 157, N-(1-(6-chloro-4-trifluoromethyl-2-pyridyl)hydrazino-2-nitroethenyl)methanesulfonamide]: the IC50 is 7.4 µM in experiment [1] (setting [3]), 5.5 µM in experiment [1] (setting [4]) and 6.5 µM in experiment [1] (setting [5]).
As to `CCOCCOc1cc(C(F)(F)F)cc(NNC(=C[N+](=O)[O-])NS(C)(=O)=O)n1` [Compound No. 164, N-(1-(6-(2-ethoxyethoxy)-4-trifluoromethyl-2-pyridyl)hydrazino-2-nitroethenyl)methanesulfonamide], the results for the IC50 in experiment [1] (setting [3]), in experiment [1] (setting [4]) and in experiment [1] (setting [5]) were 5.4 µM, 5.9 µM and 5.7 µM, respectively. The “Inhibition ratio (%) against capillary-like tube formation” value in experiment [2] (0.1 μM) is 23%; in experiment [2] (1 μM), 44* %; in experiment [2] (10 μM), 44* %; in experiment [2] (100 μM) it was 66* %. Also, the “Number of networks Average ± SD” value in experiment [2] (0.1 μM) came to 23.6 ± 3.2; in experiment [2] (1 μM) it was 17.2 ± 4.1; in experiment [2] (10 μM) it was 17.2 ± 6.0; in experiment [2] (100 μM), 10.4 ± 5.7.
`CCOCCOc1cc(C(F)(F)F)cc(NNC(=C[N+](=O)[O-])NC)n1` [Compound No. 107]: the IC50 in experiment [1] (setting [3]) stood at 8 µM; in experiment [1] (setting [4]), 7.4 µM; in experiment [1] (setting [5]) it was 7.7 µM. The “Inhibition ratio (%) against capillary-like tube formation” value in experiment [2] (0.1 μM) is on record as 35* %; in experiment [2] (1 μM), 41* %; in experiment [2] (10 μM), 62* %; in experiment [2] (100 μM), 93* %. Moreover, the “Number of networks Average ± SD” value is recorded as 20.0 ± 5.7 in experiment [2] (0.1 μM), 18.2 ± 1.6 in experiment [2] (1 μM), 11.8 ± 5.0 in experiment [2] (10 μM) and 2.0 ± 2.8 in experiment [2] (100 μM).

The values are drawn from patent US6596863B2, “Medical composition containing nitroetheneamine Derivative or salt there of as active constituent” (Ishihara Sangyo Kaisha, Ltd., priority 1998, dated 2003).
